Source: US12453757B2, “Method for ameliorating autism symptoms by pharmacological activation of the neurotensin receptor 1 (NTSR1)” (New York Institute of Technology, priority 2022, dated 2025)
Counter-ions that a name gives are not always drawn. Numbered stars: 1 amine (or outer) side, 2 acyl side, 3 side chain; on linkers, the order of the positions; unused ones are H or OH. Square brackets hold non-standard residues; d marks the D form. Peptide text beside a SMILES is read from it. X1 = NCCCC[C@H](N)CN([C@@H](CCCCN)C(=O)[*:2])[*:1]; Tle = CC(C)(C)[C@H](N)C(=O)O

Legend:
[1] = system: SHANK3 haploinsufficiency mouse model of autism; assay: Odor detection in novel background odors (go/no-go behavioral task), SHANK3 haploinsufficiency mice; type: in vivo; conditions: 6 mice, 0.13 mg/kg subcutaneous in saline, 30 minutes before test, chance 0.5, optimal 1
Protocol: (§1) FIG. 1: Behavioral task used to test the effect of PD149163. Water-deprived, head-fixed mice were trained to identify target odors in the presence of background odors. […] If the target was the “go target” odors and the mouse licked, the mouse was rewarded with a small amount water. If the mouse wrongly licked the “no-go target” odors, no water was delivered and it was given a time out. After 10-13 days, mice performance exceeded 80%. The mice were then tested with the test set, that consisted of the same target odors but with novel background odors.
(§2) In order to test the effect of NTSR1 agonists, a novel behavioral task was used developed in the lab. In this task (see FIG. 1), water-deprived, head-fixed mice were trained to identify target odors in the presence of background odors. If the mouse responded to the go target odors, it was rewarded with water. If the mouse wrongly responded to the no-go target odors, no water was delivered and it experienced a time out. Chance performance was 0.5 and optimal performance was 1. After mice mastered this task (performance>0.8) with a set of known background odors after ˜10 days of training, the animals were tested with the same targets but in the presence of novel background odors. The performance of WT mice with novel background odors is above chance (0.74, 95% CI: 0.68-0.80, 3 WT mice). […]

[2] = system: CNTNAP2 knockout mouse model of autism; assay: Odor detection in novel background odors (go/no-go behavioral task), CNTNAP2 knockout mice; type: in vivo
Protocol: as §1
In order to test the effect of NTSR1 agonists, a novel behavioral task was used developed in the lab. In this task (see FIG. 1), water-deprived, head-fixed mice were trained to identify target odors in the presence of background odors. If the mouse responded to the go target odors, it was rewarded with water. If the mouse wrongly responded to the no-go target odors, no water was delivered and it experienced a time out. Chance performance was 0.5 and optimal performance was 1. After mice mastered this task (performance>0.8) with a set of known background odors after ˜10 days of training, the animals were tested with the same targets but in the presence of novel background odors. The performance of WT mice with novel background odors is above chance (0.74, 95% CI: 0.68-0.80, 3 WT mice).
This novel behavioral task was used to test the effects of the neurotensin receptor 1 agonists. The performances of both mouse models of autism without PD149163 (a peptide neurotensin receptor 1 agonist) were lower than the performance of the WT mice (SHANK3 haploinsufficiency: 0.62, 95% CI: 0.59-0.66, 6 mice, each mouse tested on 4 different days, CNTNAP2 knockout: 0.61, 95% CI: 0.56-0.65, 4 mice) (see FIG. 2). […] This dosage reversed the recognition deficit in novel environments shown by both mouse models of autism, with performance that matched the performance of the WT mice (SHANK3 haploinsufficiency: 0.81, 95% CI: 0.77-0.85, 6 mice, each mouse tested on 2 different days, CNTNAP2 knockout: 0.82, 95% CI: 0.77-0.86, 4 mice). […]

[3] = system: SHANK3 and CNTNAP2 mouse models of autism; assay: Odor detection in novel background odors, both mouse models of autism pooled (dose response, duration); type: in vivo
Protocol: FIG. 3: Performance of odor detection in novel environments as a function of the dose of PD149163 injected subcutaneously using saline as vehicle. The bars represent the average performance for all 10 tested mice (four CNTNAP2 mice and six SHANK3 mice) at the three doses tested. The error bars are the 95% CI. The lines represent the performance for individual mice. The p values were calculated using paired t-test to compare the average performances of the 10 tested mice using the 0.13 mg/kg against the 0.065 mg/kg dose and the no drug condition.
as §2

mice = assay: Lethargy side effect after injection; type: in vivo, mouse

For `CCOC(=O)[C@H](CC(C)C)NC(=O)[C@@H](NC(=O)[C@H](Cc1c[nH]c2ccccc12)NC(=O)[C@@H]1CCCN1C(=O)[C@H](CCCCN)NC[C@@H](N)CCCCN)C(C)(C)C` [PD149163, N2-[(2S)-2,6-Diaminohexyl]-L-lysyl-L-prolyl-L-tryptophyl-3-methyl-L-valyl-L-Leucine ethyl ester tetrahydrochloride hydrate] (H-[X1]PW[Tle]L-OEt), which “Performance of odor detection with novel background odors” value (from here on “Performance of odor detection”) [1] is on record?
Its value is 0.81.

What about the “Performance of odor detection” value ([2]; CNTNAP2 knockout male mice (2 mice, 2 sessions), 0.39 mg/kg in PEG400 (80 μg/ml), two subcutaneous injections 1 hour and 30 minutes before task) of the same molecule?
Its value is 0.76.

And the “Performance of odor detection” value ([2]; CNTNAP2 knockout male mice (2 mice, 5 sessions), 0.13 mg/kg subcutaneous in saline, 30 minutes before test)?
The value was 0.54.

What about the “Performance of odor detection” value ([2]; CNTNAP2 knockout, 4 mice, 0.13 mg/kg subcutaneous in saline, 30 minutes before test, chance 0.5, optimal 1) of the same molecule?
The value was 0.82.

What about the “Duration of drug effects on performance” value ([3]; 0.13 mg/kg subcutaneous in saline, returned to baseline the next day) of the same molecule?
The value was “less than 24 hours”.

What about the “Improvement of behavior (odor detection performance)” value ([3]; half dose 0.065 mg/kg subcutaneous, saline as vehicle) of the same molecule?
Its value is “did not produce an improvement”.

What about the Lethargy (mice; 0.26 mg/Kg subcutaneous, PEG400 as vehicle, 2 SHANK3 mice) of the same molecule?
Its Lethargy is “no lethargy”.

And the Lethargy (mice; 0.26 mg/kg subcutaneous, saline as vehicle)?
The Lethargy was “produced lethargy”.

And the Lethargy (mice; therapeutic dose by intraperitoneal injection instead of subcutaneous)?
Its Lethargy is “resulted also in lethargy”.
